Test systems include A498; SK-MEL-5; Malme-3M; MDA-N; U-251; LOX IMVI; RPMI-8226; NCI/ADR-RES; COLO 205; MOLT-4; A549; CCRF-CEM; BT-549; IGROV-1; 786-0; MDA-MB-435; NCI-H226; DU-145; HCT-15; SNB-19.
Common to all, as to assay: NCI tumour cell line growth inhibition, 48 h

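Grown in 96-well plates, cells were treated for 48 hours with each compound at five concentrations. Insufficient inhibition: endpoint recorded as highest concentration tested. Here, GI50 denotes the concentration required for 50% inhibition of growth.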 Active and inactive are the calls of the source. Cut-off read from the data, not from the text of the source: active = GI50 up to about 1.1 µM and inactive = higher. Some results are limits rather than exact numbers.

Turning to `CCCCNC(=S)Nc1nc(C(=O)NNC(=S)NCC)cs1`, the GI50 is > 100 µM (inactive) in the test on A498; 25.7 µM (inactive) in the test on SK-MEL-5; > 100 µM (inactive) with Malme-3M; 82 µM (inactive) with MDA-N; > 100 µM (inactive) in the test on U-251; 33.2 µM (inactive) with LOX IMVI. The GI50 in the test with RPMI-8226 was > 100 µM (inactive); in the test on NCI/ADR-RES it was 26.5 µM (inactive); in the test on COLO 205 it was 62.5 µM (inactive); with MOLT-4 it was 50.4 µM (inactive); in the test on A549, > 100 µM (inactive); in the test with CCRF-CEM it was 44 µM (inactive). The GI50 in the test with BT-549 is > 100 µM (inactive); in the test on IGROV-1, 78.5 µM (inactive); in the test with 786-0 it was > 100 µM (inactive); with MDA-MB-435 it was > 100 µM (inactive); with NCI-H226 it was > 10 µM (inactive); with DU-145, 73.5 µM (inactive). The same compound gave a GI50 in the test with HCT-15 of 23 µM.

`COc1ccc(-n2cnc3c(NC(Cc4ccccc4)C(=O)O)ncnc32)cc1` (stereo unspecified): the GI50 in the test on A498, in the test with SK-MEL-5, in the test on MDA-N, in the test with U-251, in the test on LOX IMVI and in the test with RPMI-8226 was > 100 µM (inactive) each time. Further, the GI50 in the test with NCI/ADR-RES, with COLO 205, in the test on A549, in the test on CCRF-CEM, in the test on BT-549 and with IGROV-1 was > 100 µM (inactive) throughout. Further, the GI50 is > 100 µM (inactive) in the test with 786-0; > 100 µM (inactive) in the test with MDA-MB-435; > 100 µM (inactive) in the test on NCI-H226; > 100 µM (inactive) in the test on DU-145; > 10 µM (inactive) with SNB-19; more than 100 µM in the test with HCT-15.

Consider `C(#C[C@@]12CCC[C@@H]1N(Cc1ccccc1)CO2)c1ccc2c(c1)OCO2`, for which the GI50 in the test on A498, in the test with Malme-3M, in the test on MDA-N, in the test on U-251, in the test with RPMI-8226 and in the test with NCI/ADR-RES was > 100 µM (inactive) in each case. The GI50 in the test on COLO 205, with MOLT-4, with A549, in the test with CCRF-CEM, in the test with BT-549 and in the test on 786-0 was > 100 µM (inactive) each time. Further, the GI50 is > 100 µM (inactive) in the test with MDA-MB-435; > 100 µM (inactive) in the test with NCI-H226; > 100 µM (inactive) in the test with DU-145; > 100 µM (inactive) in the test with SNB-19; more than 100 µM with HCT-15.

For `C=C(C)COC(=O)COCC(=O)OCC(=C)C`, the GI50 in the test on A498, with SK-MEL-5, in the test on Malme-3M, in the test on MDA-N, in the test on U-251 and with RPMI-8226 was > 100 µM (inactive) in each case. In addition, the GI50 in the test on NCI/ADR-RES, with COLO 205, in the test on MOLT-4, in the test with A549, with CCRF-CEM and in the test on BT-549 was > 100 µM (inactive) each time. For the same compound, the GI50 in the test with IGROV-1, in the test with 786-0, in the test with MDA-MB-435, in the test with NCI-H226, in the test on DU-145 and in the test with SNB-19 was > 100 µM (inactive) throughout. This compound also displayed a GI50 in the test on HCT-15 of more than 100 µM.

In the case of `CN(Cc1c[n+]([O-])c2nc(N)nc(N)c2n1)c1ccc(C(=O)NC23CC4CC(CC(C4)C2)C3)cc1`, the GI50 is 13.5 µM (inactive) in the test with A498; 34.7 µM (inactive) in the test with SK-MEL-5; 78.2 µM (inactive) in the test with Malme-3M; 70.6 µM (inactive) in the test on MDA-N; 34.5 µM (inactive) with U-251; > 100 µM (inactive) in the test on LOX IMVI. Moreover, the GI50 is 93.1 µM (inactive) with RPMI-8226; > 100 µM (inactive) with NCI/ADR-RES; > 100 µM (inactive) with COLO 205; 32.7 µM (inactive) in the test with MOLT-4; 28.6 µM (inactive) in the test with CCRF-CEM; 28.2 µM (inactive) in the test with BT-549. Also, the GI50 is 54.3 µM (inactive) in the test on IGROV-1; > 100 µM (inactive) in the test with 786-0; 77.4 µM (inactive) with MDA-MB-435; > 100 µM (inactive) in the test with NCI-H226; > 100 µM (inactive) in the test with DU-145; 92.7 µM (inactive) with SNB-19. In the test with HCT-15, the GI50 was more than 100 µM.

Take `COc1ccc(/C(=N\Nc2ccccn2)c2ccccn2)cc1`: the GI50 with A498 is 38.2 µM (inactive); with SK-MEL-5, 0.0303 µM (active); in the test on Malme-3M, < 0.01 µM (active); in the test on MDA-N, 0.631 µM (active); in the test with U-251, < 0.0178 µM (active); with RPMI-8226, < 0.0268 µM (active). Besides, the GI50 is < 0.01 µM (active) with NCI/ADR-RES; < 0.01 µM (active) in the test with COLO 205; < 0.01 µM (active) in the test with MOLT-4; 0.149 µM (active) in the test with A549; < 0.01 µM (active) in the test with CCRF-CEM; 0.818 µM (active) with BT-549. The GI50 in the test on IGROV-1 was 0.0167 µM (active); in the test with 786-0, < 0.0162 µM (active); in the test with MDA-MB-435, 0.156 µM (active); in the test with NCI-H226, < 0.01 µM (active); with DU-145 it was 0.29 µM (active); in the test on SNB-19, 0.544 µM (active). In the test on HCT-15, the GI50 is 0.0103 µM.

For `CN(C)c1ccc(/C=C(\NC(=O)c2ccccc2)C(=O)NC(Cc2c[nH]c3ccccc23)C(=O)O)cc1` (stereo unspecified), the GI50 with A498, in the test with SK-MEL-5, in the test on Malme-3M, in the test on MDA-N, in the test on U-251 and with LOX IMVI was > 100 µM (inactive) in each case. The GI50 with RPMI-8226, in the test on NCI/ADR-RES, with COLO 205, in the test with MOLT-4, with A549 and in the test with CCRF-CEM was > 100 µM (inactive) each time. Besides, the GI50 with BT-549, in the test with IGROV-1, in the test with 786-0, with MDA-MB-435, in the test on NCI-H226 and with DU-145 was > 100 µM (inactive) in each case. Further, the GI50 with SNB-19 is > 100 µM (inactive); with HCT-15, more than 100 µM.

As for `NCCCCCCn1c(-c2ccc(Br)cc2)cs/c1=N\c1ccccc1`, the GI50 is 17.9 µM (inactive) in the test with A498; 10.1 µM (inactive) in the test on SK-MEL-5; 9.35 µM (inactive) in the test on Malme-3M; 6.28 µM (inactive) in the test on MDA-N; 7.89 µM (inactive) with U-251; 2.53 µM (inactive) in the test on LOX IMVI. Moreover, the GI50 was 3.33 µM (inactive) with RPMI-8226; 12.2 µM (inactive) in the test on NCI/ADR-RES; 1.79 µM (inactive) in the test on COLO 205; 3.83 µM (inactive) in the test on MOLT-4; 12.5 µM (inactive) in the test on A549; 6.9 µM (inactive) in the test on CCRF-CEM. The GI50 with BT-549 was 13.8 µM (inactive); with 786-0 it was 10.2 µM (inactive); in the test with MDA-MB-435 it was 10.8 µM (inactive); in the test with NCI-H226 it was 16.9 µM (inactive); with DU-145, 13.5 µM (inactive); in the test with SNB-19, 14.9 µM (inactive). Further, the GI50 in the test with HCT-15 is 7.74 µM.

Take `Cc1c/c(=N\c2ccc3c(c2)c(N)cc(C)[n+]3C)nc(N)n1C`: the GI50 in the test on A498 is > 100 µM (inactive); in the test with SK-MEL-5, > 100 µM (inactive); in the test on Malme-3M, > 100 µM (inactive); in the test on MDA-N, > 100 µM (inactive); with U-251 it was 88.3 µM (inactive); in the test on LOX IMVI, > 100 µM (inactive). The GI50 with RPMI-8226, with NCI/ADR-RES, in the test with COLO 205, in the test on MOLT-4, with A549 and in the test with CCRF-CEM was > 100 µM (inactive) in each case. The GI50 with BT-549, in the test with IGROV-1, in the test with 786-0, in the test on MDA-MB-435, with DU-145 and in the test with SNB-19 was > 100 µM (inactive) each time. The GI50 with HCT-15 is more than 100 µM.

`COc1ccc(C(O)c2ccccn2)cc1` (stereo unspecified): the GI50 in the test on A498, with SK-MEL-5, in the test with Malme-3M, in the test on MDA-N, in the test on U-251 and in the test with LOX IMVI was > 100 µM (inactive) each time. For the same compound, the GI50 in the test on RPMI-8226, with NCI/ADR-RES, with COLO 205, in the test on MOLT-4, in the test on A549 and in the test with BT-549 was > 100 µM (inactive) each time. The GI50 in the test on IGROV-1, in the test with 786-0, in the test on MDA-MB-435, in the test with NCI-H226, in the test on DU-145 and in the test on SNB-19 was > 100 µM (inactive) throughout. Moreover, the GI50 in the test on HCT-15 was more than 100 µM.

For `C[C@@H](NC(C#N)c1ccco1)c1ccccc1` (stereo partly specified), the GI50 with A498, in the test with SK-MEL-5, in the test with Malme-3M, in the test with MDA-N, with U-251 and in the test on RPMI-8226 was > 100 µM (inactive) in each case. Also, the GI50 in the test on NCI/ADR-RES, in the test with MOLT-4, in the test on A549, with CCRF-CEM, in the test on BT-549 and with IGROV-1 was > 100 µM (inactive) in each case. In addition, the GI50 with 786-0 was > 100 µM (inactive); in the test with MDA-MB-435, > 100 µM (inactive); in the test with NCI-H226 it was > 100 µM (inactive); in the test on DU-145, > 100 µM (inactive); in the test on SNB-19, > 100 µM (inactive); with HCT-15, more than 100 µM.

Source of the values: ChEMBL document CHEMBL1201862, “PubChem BioAssay data set” (2004).
